From ChEMBL document CHEMBL6078704, “Redesigning Berberines and Sanguinarines to Target Soluble Epoxide Hydrolase for Enhanced Anti-Inflammatory Efficacy” (J Med Chem, 2024)

Experiments:
HepG2 = assay: Cytotoxicity against human HepG2 cells assessed as cell viability at 0.5 to 5 uM measured after 48 hrs by CCK-8 assay; format: toxicity, cell-based; details: hepg2, 48 h, dose 0.5-5 µM
[1] = biological target: T1, Bifunctional epoxide hydrolase 2 (Mus musculus, UniProt P34914); assay: Inhibition of male C57BL/6J mouse brain sEH assessed as quantity of 14,15-DHET level measured after 15 mins incubation by HPLC-MS analysis
T1 sequence (P34914 whole entry): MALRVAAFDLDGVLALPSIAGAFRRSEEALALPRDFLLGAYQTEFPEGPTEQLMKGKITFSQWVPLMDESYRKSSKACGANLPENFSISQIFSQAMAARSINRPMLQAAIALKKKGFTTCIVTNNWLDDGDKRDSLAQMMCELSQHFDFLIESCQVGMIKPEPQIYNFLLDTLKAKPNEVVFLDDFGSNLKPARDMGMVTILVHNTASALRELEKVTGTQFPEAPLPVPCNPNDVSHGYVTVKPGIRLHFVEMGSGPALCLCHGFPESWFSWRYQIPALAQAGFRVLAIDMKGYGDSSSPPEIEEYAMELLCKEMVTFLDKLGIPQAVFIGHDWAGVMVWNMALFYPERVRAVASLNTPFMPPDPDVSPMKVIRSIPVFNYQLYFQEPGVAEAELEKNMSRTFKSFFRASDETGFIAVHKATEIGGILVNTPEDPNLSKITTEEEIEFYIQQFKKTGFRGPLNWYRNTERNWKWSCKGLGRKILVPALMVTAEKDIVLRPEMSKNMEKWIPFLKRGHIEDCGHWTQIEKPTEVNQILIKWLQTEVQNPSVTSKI

HEK-293T = assay: Cytotoxicity against human 293T cells assessed as cell viability at 0.5 to 5 uM measured after 48 hrs by CCK-8 assay; format: toxicity, cell-based; details: dose 0.5-5 µM
Mus musculus [2] = assay: Anti-inflammatory activity in carrageen-induced paw edema BALB/c mouse model assessed as inhibition of soft tissue edema and inflammation measured immediately at 0.5 mg/kg, ip measured up to 6 hrs; format: functional
Staphylococcus aureus [3] = assay: Antimicrobial activity against Staphylococcus aureus ATCC 29213 by microbroth dilution method; format: functional
Staphylococcus aureus [4] = assay: Antimicrobial activity against methicillin-resistant Staphylococcus aureus 19B120 by microbroth dilution method; format: functional
Mus musculus [5] = assay: Anti-inflammatory activity in carrageen-induced paw edema BALB/c mouse model assessed as inhibition of soft tissue edema and inflammation measured immediately at 20 mg/kg, po measured at 1 to 4 hrs; format: functional; details: time 1-4 hrs
Mus musculus [6] = assay: Antiinflammatory activity against cerulein-induced acute pancreatitis in CD1 mouse assessed as increase in pancreatic 8,9-EET/DHET ratio at 20 mg/kg, ip pretreated with cerulein followed by compound injection on 30 and 150 mins and measured 6 hrs post cerulein treatment relative to model group; format: functional; details: time 30-360 min
Mus musculus [7] = assay: Antiinflammatory activity against cerulein-induced acute pancreatitis in CD1 mouse assessed as increase in plasma 14,15-EET/DHET ratio at 20 mg/kg, ip pretreated with cerulein followed by compound injection on 30 and 150 mins and measured 6 hrs post cerulein treatment relative to model group; format: functional; details: time 30-360 min
Mus musculus [8] = assay: Antiinflammatory activity against cerulein-induced acute pancreatitis in CD1 mouse assessed as increase in plasma 8,9-EET/DHET ratio at 20 mg/kg, ip pretreated with cerulein followed by compound injection on 30 and 150 mins and measured 6 hrs post cerulein treatment relative to model group; format: functional; details: time 30-360 min
Mus musculus [9] = assay: Antiinflammatory activity against cerulein-induced acute pancreatitis in CD1 mouse assessed as increase in pancreatic 14,15-EET/DHET ratio at 20 mg/kg, ip pretreated with cerulein followed by compound injection on 30 and 150 mins and measured 6 hrs post cerulein treatment relative to model group; format: functional; details: time 30-360 min

| Structure (SMILES) | Activity (HepG2) | IC50 [1] | Activity (HEK-293T) | also measured |
| --- | --- | --- | --- | --- |
| CCC(=O)N1CCC(CNC(=O)Nc2ccc3c(c2)CN(C)c2c-3ccc3ccccc23)CC1 | Non-toxic | 6.94 nM | Non-toxic |  |
| CC(C)CNC(=O)Nc1ccc2c(c1)CN(C)c1c-2ccc2ccccc12 |  | 20.5 nM |  |  |
| COc1cc2c(cc1OC)C1Cc3ccc(NC(=O)NCc4ccc(OC(F)F)cc4)cc3CN1CC2 (stereo unspecified) | Non-toxic | 1.33 nM | Non-toxic |  |
| COc1cc2c(cc1OC)-c1cc3ccc(NC(=O)NCc4ccc(OC(F)(F)F)cc4)cc3c(=O)n1CC2 |  | 37.6 nM |  |  |
| COc1cc2c(cc1OC)C1Cc3ccc(NC(=O)NCc4cccc(OC(F)(F)F)c4)cc3CN1CC2 (stereo unspecified) | Non-toxic | 2.55 nM | Non-toxic | inhibition (Mus musculus [2]): Active; Reduced Inhibition In Later Stages Of Experiment |
| COc1cc2c(cc1OC)CN1CCc3cc(NC(=O)NCc4ccc(OC(F)F)cc4)ccc3C1C2 (stereo unspecified) | Non-toxic | 0.73 nM | Non-toxic |  |
| O=C(NCC1CCOCC1)Nc1ccc2c(c1)CN1CCc3cc4c(cc3C1C2)OCO4 (stereo unspecified) |  | 15.9 nM |  |  |
| O=C(NCc1ccc(OC(F)(F)F)cc1)Nc1ccc2c(c1)CN1CCc3cc4c(cc3C1C2)OCO4 (stereo unspecified) |  | 1.49 nM |  |  |
| COc1cc2c(cc1OC)C1Cc3ccc(NC(=O)NCc4ccc(S(C)(=O)=O)cc4)cc3CN1CC2 (stereo unspecified) | Non-toxic | 6.13 nM | Non-toxic | inhibition in vivo at 0.5 mg/kg (Mus musculus [2]): 25% |
| COc1cc2c(cc1OC)C1Cc3ccc(NC(=O)NCC4CCOCC4)cc3CN1CC2 (stereo unspecified) |  | 19.4 nM |  |  |
| COc1cc2cc3[n+](cc2cc1OC)CCc1cc(NC(=O)NCc2ccc(OC(F)(F)F)cc2)ccc1-3.[Cl-] |  | 39.1 nM |  | MIC (Staphylococcus aureus [3]): 8 µg/mL; MIC (Staphylococcus aureus [4]): 4 µg/mL |
| COc1cc2c(cc1OC)C1Cc3ccc(NC(=O)NC[C@@H]4CCCO4)cc3CN1CC2 (stereo partly specified) |  | 54.3 nM |  |  |
| COc1cc2c(cc1OC)C1Cc3ccc(NC(=O)NCC4COC4)cc3CN1CC2 (stereo unspecified) |  | 2650 nM |  |  |
| COc1cc2c(cc1OC)C1Cc3ccc(NC(=O)NCc4ccc(OC(F)(F)F)cc4)cc3CN1CC2 (stereo unspecified) | Non-toxic | 0.86 nM | Non-toxic | inhibition in vivo at 0.5 mg/kg (Mus musculus [2]): 35% |
| CCC(=O)N1CCC(NC(=O)Nc2ccc(OC(F)(F)F)cc2)CC1 |  |  |  | inhibition in vivo at 20 mg/kg (Mus musculus [5]): 25%; inhibition in vivo at 0.5 mg/kg (Mus musculus [2]): 15% |
| COc1cc2c(cc1OC)CN1CCc3cc(NC(=O)NCc4ccc(OC(F)(F)F)cc4)ccc3[C@@H]1C2 |  |  |  | inhibition in vivo at 20 mg/kg (Mus musculus [5]): 27% |
| CCC(=O)N1CCC(NC(=O)Nc2ccc3c(c2)CN2CCc4cc5c(cc4C2C3)OCO5)CC1 (stereo unspecified) |  | 97.1 nM |  |  |

| Structure (SMILES) | Activity (HepG2) | IC50 [1] | Activity (HEK-293T) | also measured |
| --- | --- | --- | --- | --- |
| CCC(=O)N1CCC(NC(=O)Nc2ccc3c(c2)CN2CCc4cc(OC)c(OC)cc4C2C3)CC1 (stereo unspecified) |  | 143 nM |  |  |
| CC(C)CNC(=O)Nc1ccc2c(c1)CN1CCc3cc4c(cc3C1C2)OCO4 (stereo unspecified) |  | 9.98 nM |  |  |
| COc1cc2c(cc1OC)CN1CCc3cc(NC(=O)NCc4ccc(OC(F)(F)F)cc4)ccc3C1C2 (stereo unspecified) | Non-toxic | 2.83 nM | Non-toxic | inhibition in vivo at 0.5 mg/kg (Mus musculus [2]): 35% |
| CN1Cc2cc(NC(=O)NCC3CCOCC3)ccc2-c2ccc3ccccc3c21 | Non-toxic | 5.56 nM | Non-toxic |  |
| CCC(=O)N1CCC(CNC(=O)Nc2ccc3c(c2)CCN2Cc4cc(OC)c(OC)cc4CC32)CC1 (stereo unspecified) |  | 42.7 nM |  |  |
| COc1cc2c(cc1OC)-c1cc3ccc(NC(=O)NCc4ccc(OC(F)(F)F)cc4)cc3c[n+]1CC2 |  | 210 nM |  | MIC (Staphylococcus aureus [3]): 8 µg/mL; MIC (Staphylococcus aureus [4]): 8 µg/mL |
| COc1cc2c(cc1OC)CN1CCc3cc(NC(=O)NCc4ccc(OC(F)(F)F)cc4)ccc3[C@H]1C2 | Non-toxic |  | Non-toxic | fold change (FC) (Mus musculus [6]): 6.7; fold change (FC) (Mus musculus [7]): 3.3; MIC (Staphylococcus aureus [3]): > 64 µg/mL; fold change (FC) (Mus musculus [8]): 2; fold change (FC) (Mus musculus [9]): 18.5; MIC (Staphylococcus aureus [4]): > 64 µg/mL |
| O=C(NCc1ccc(OC(F)F)cc1)Nc1ccc2c(c1)CN1CCc3cc4c(cc3C1C2)OCO4 (stereo unspecified) | Non-toxic | 0.67 nM | Non-toxic |  |
| O=C(NCc1cccc(OC(F)(F)F)c1)Nc1ccc2c(c1)CN1CCc3cc4c(cc3C1C2)OCO4 (stereo unspecified) |  | 2.34 nM |  |  |
| COc1ccc2cc3[n+](cc2c1OC)CCc1cc2c(cc1-3)OCO2 [BERBERINE] |  |  |  | MIC (Staphylococcus aureus [3]): 64 µg/mL; MIC (Staphylococcus aureus [4]): 32 µg/mL |
| CN1Cc2cc(NC(=O)NCc3ccc(OC(F)(F)F)cc3)ccc2-c2ccc3ccccc3c21 |  | 12.1 nM |  |  |
| COc1cc2c(cc1OC)C1Cc3ccc(NC(=O)Nc4ccc(OC(F)(F)F)cc4)cc3CN1CC2 (stereo unspecified) |  | 40.7 nM |  |  |
| CCC(=O)N1CCC(CNC(=O)Nc2ccc3c(c2)CN2CCc4cc5c(cc4C2C3)OCO5)CC1 (stereo unspecified) | Non-toxic | 15.6 nM | Non-toxic |  |
| CCC(=O)N1CCC(CNC(=O)Nc2ccc3c(c2)CN2CCc4cc(OC)c(OC)cc4C2C3)CC1 (stereo unspecified) |  | 18.8 nM |  |  |
| COc1cc2c(cc1OC)C1Cc3ccc(NC(=O)NCC4CCCCC4)cc3CN1CC2 (stereo unspecified) |  | 4.98 nM |  |  |
| COc1cc2c(cc1OC)C1Cc3ccc(NC(=O)NCc4ccc(S(N)(=O)=O)cc4)cc3CN1CC2 (stereo unspecified) |  | 17.3 nM |  |  |
| COc1cc2c(cc1OC)CN1CCc3cc(NC(=O)NCC4CCOCC4)ccc3C1C2 (stereo unspecified) |  | 21.2 nM |  |  |
